In brackets after ≈: the same amount, converted by molar mass.

The results in this text go back to ChEMBL document CHEMBL4613212, “Insights of synthetic analogues of anti-leprosy agents” (Bioorg Med Chem, 2019).

The test system of the assay is Mycobacterium tuberculosis. As to the kind of experiment: Antimycobacterial activity against Mycobacterium bovis BCG Pasteur incubated for 10 days by spectrophotometric based assay. It counts as functional. Particulars: variant bovis BCG, 240 h.

For the compound `CCCCCCCCC(CCC1CCCC1)C(N)=O` (stereo not given), the MIC99 (in general, an inhibitory concentration at the 99% level, which refers to growth in some studies and to a panel of isolates in others) turned out to be 5400 µM (≈ 1440 µg/mL).

Compound `O=C(O)C(CCCCCCCF)CCC1CCCC1` (stereo not given) yielded an MIC99 of 1600 µM (≈ 436 µg/mL).

In the case of `CCCCCCCCC(CCC1CCCC1)C(=O)NCC` (stereo not given), the MIC99 was 4400 µM (≈ 1300 µg/mL).

`CCCCCCCCC(COC1CCCC1)C(=O)O` (stereo not given) registered an MIC99 of 2200 µM (≈ 595 µg/mL).

Consider `CCCCCCOCC(CCC1CCCC1)C(=O)O` (stereo not given), for which the MIC99 was found to be 1100 µM (≈ 297 µg/mL).

In the case of `O=C1c2ccccc2C(=O)N1c1ccc(S(=O)(=O)Nc2ccncn2)cc1`, the MIC99 stood at 1900 µM (≈ 723 µg/mL).

Turning to `CCCCCCCCC(CCC1CCCN1)C(=O)O` (stereo not given), the MIC99 was found to be 5100 µM (≈ 1370 µg/mL).

The compound `CCCCCCCCC(CCC1CCCO1)C(=O)O` (stereo not given) registered an MIC99 of 2500 µM (≈ 676 µg/mL).

In turn, `O=C1c2ccccc2C(=O)N1c1ccc(S(=O)(=O)Nc2ccccn2)cn1` gave an MIC99 of 1900 µM (≈ 723 µg/mL).

Compound `CCCCCCCCC(CCC1CCCC1)C(=O)OC` (stereo not given) came in with an MIC99 of 1500 µM (≈ 424 µg/mL).

With `O=C1c2ccccc2C(=O)N1c1cnc(S(=O)(=O)Nc2ccccn2)cn1`, the MIC99 was determined as 900 µM (≈ 343 µg/mL).

Take `O=C1c2ccccc2C(=O)N1c1ccc(S(=O)(=O)Nc2cnccn2)cc1`: the MIC99 worked out at 1000 µM (≈ 380 µg/mL).

Compound `CCCCCCCCC(CCC1=CCC=C1)C(=O)O` (stereo not given) yielded an MIC99 of 6000 µM (≈ 1590 µg/mL).

The compound `CCCOCOCCC(CCC1CCCC1)C(=O)O` (stereo not given) registered an MIC99 of 500 µM (≈ 136 µg/mL).

On to `CCCCCCCCC(CCC1CCCS1)C(=O)O` (stereo not given), for which the MIC99 was found to be 5400 µM (≈ 1550 µg/mL).
